# Results reported in patent publication US20230358677A1, “Reversible Excited-State Photoacids and Photobases as Dynamic Fluorescence Sensors of Protonic Species” (California Institute of Technology, priority 2022, published 2023).
# Entries after “also recorded” stand apart in the source; their conditions may differ.
# Assay: Stability of dye fluorescence near an operating gas diffusion electrode
# Conditions: 10 mM stock solution exposed to −100 mA/cm^2 for 30 minutes
row,Compound,colour of stock solution after exposure
1,"Nc1cc(S(=O)(=O)[O-])c2ccc3c(S(=O)(=O)[O-])cc(S(=O)(=O)[O-])c4ccc1c2c43.[Na+].[Na+].[Na+] [APTS, 8-aminopyrene-1,3,6-trisulfonic acid trisodium salt]",from bright green to brown

# Same assay, conditions: high current densities (magnitudes >80 mA/cm^2); trisodium salt
row,Compound,photoluminescence intensity during GDE operation
1,"Nc1cc(S(=O)(=O)[O-])c2ccc3c(S(=O)(=O)[O-])cc(S(=O)(=O)[O-])c4ccc1c2c43.[Na+].[Na+].[Na+] [APTS, 8-aminopyrene-1,3,6-trisulfonic acid trisodium salt]",degrades and slowly loses its fluorescence; also recorded: decrease in photoluminescence intensity

# Same assay, conditions: increasing concentration of dissolved inorganic carbon
row,Compound,steady-state photoluminescence spectrum versus dissolved inorganic carbon
1,"Nc1cc(S(=O)(=O)[O-])c2ccc3c(S(=O)(=O)[O-])cc(S(=O)(=O)[O-])c4ccc1c2c43.[Na+].[Na+].[Na+] [APTS, 8-aminopyrene-1,3,6-trisulfonic acid trisodium salt]",minimal change in intensity

# Same assay, conditions: stock solution exposed to −100 mA/cm^2 for 5 minutes
row,Compound,calibration curve after degradation versus fresh solutions
1,"Nc1cc(S(=O)(=O)[O-])c2ccc3c(S(=O)(=O)[O-])cc(S(=O)(=O)[O-])c4ccc1c2c43.[Na+].[Na+].[Na+] [APTS, 8-aminopyrene-1,3,6-trisulfonic acid trisodium salt]",nearly identical

# Same assay, conditions: with and without light
row,Compound,"degradation, pH 7.1 versus pH 3 solution"
1,"Nc1cc(S(=O)(=O)[O-])c2ccc3c(S(=O)(=O)[O-])cc(S(=O)(=O)[O-])c4ccc1c2c43.[Na+].[Na+].[Na+] [APTS, 8-aminopyrene-1,3,6-trisulfonic acid trisodium salt]",degradation effect is more pronounced for the pH 3 solution

# Assay: not given
# Conditions: excited state; photoluminescence titration, Henderson-Hasselbalch analysis; cited from earlier work
row,Compound,pKa* pseudo
1,2-aminonaphthalene-6-sulfonate,11.86
2,"Nc1cccc2c1C(=O)c1cccc(N)c1C2=O [1,5-diaminoanthraquinone]",12.3
3,"Nc1cc2ccccc2cc1N [2,3-diaminonaphthalene]",12.9
4,"Nc1ccc2c(c1)C(=O)c1ccc(N)cc1C2=O [2,6-diaminoanthraquinone]",14.2
5,"Nc1ccc2c(c1)Cc1cc(N)ccc1-2 [2,7-diaminofluorene]",13.9
6,CNc1ccccc1-c1nc2ccccc2n1C [2-(2′-N-methyl-aminophenyl)-N-methylbenzimidazole],12.2
7,Nc1cc2ccccc2cc1C(=O)O [2-amino-3-naphthoic acid],12.8
8,Nc1ccccc1-c1ccccc1 [2-aminobiphenyl],12.1
9,Nc1ccc2c(c1)Cc1ccccc1-2 [2-aminofluorene],13.0
10,Nc1ccc2ccccc2c1 [2-naphthylamine],11.75
11,"c1ccc(-c2cc(-c3ccccc3)[nH]n2)cc1 [3,5-diphenylpyrazole]",12.64
12,Nc1cccc(-c2ccccc2)c1 [3-aminobiphenyl],12.0
13,Nc1cnc2ccccc2c1 [3-aminoquinoline],12.1
14,COc1n[nH]c2ccccc12 [3-methoxyindazole],11.7
15,"Nc1ccc(Nc2ccc(N)cc2)cc1 [4,4′-diaminodiphenylamine]",13.5

# Same assay, conditions: ground state; cited from earlier work
row,Compound,pKa
1,"Nc1cccc2c1C(=O)c1cccc(N)c1C2=O [1,5-diaminoanthraquinone]",>14
2,"Nc1cc2ccccc2cc1N [2,3-diaminonaphthalene]",>16
3,"Nc1ccc2c(c1)C(=O)c1ccc(N)cc1C2=O [2,6-diaminoanthraquinone]",>15.6
4,"Nc1ccc2c(c1)Cc1cc(N)ccc1-2 [2,7-diaminofluorene]",>16
5,Nc1cc2ccccc2cc1C(=O)O [2-amino-3-naphthoic acid],>16
6,Nc1ccccc1-c1ccccc1 [2-aminobiphenyl],>15.0
7,Nc1ccc2ccccc2c1 [2-naphthylamine],14.95
8,"c1ccc(-c2cc(-c3ccccc3)[nH]n2)cc1 [3,5-diphenylpyrazole]",12.94
9,Nc1cccc(-c2ccccc2)c1 [3-aminobiphenyl],>15.0
10,COc1n[nH]c2ccccc12 [3-methoxyindazole],14.0
11,"Nc1ccc(Nc2ccc(N)cc2)cc1 [4,4′-diaminodiphenylamine]",>14.2

# Assay: Ground-state and excited-state acidities of aromatic-amine-based photoacids (Table 1)
# Conditions: pKa* pseudo minus pKa
# Excerpt: Because the Henderson-Hasselbalch equation is derived for proton-transfer reactions at thermal and chemical equilibrium, it is agnostic to whether the ESPT acceptor species are H2O(l) or OH^−(aq), but it does require that the system has reached excited-state quasi-equilibrium.
# Observed rate constants can be determined for excited-state proton transfer from weak photoacids to a series of proton-accepting quenchers.
row,ΔpKa pseudo,Compound
1,< −1.7,"Nc1cccc2c1C(=O)c1cccc(N)c1C2=O [1,5-diaminoanthraquinone]"
2,< −3.1,"Nc1cc2ccccc2cc1N [2,3-diaminonaphthalene]"
3,< −1.4,"Nc1ccc2c(c1)C(=O)c1ccc(N)cc1C2=O [2,6-diaminoanthraquinone]"
4,< 3.2,Nc1cc2ccccc2cc1C(=O)O [2-amino-3-naphthoic acid]
5,−0.3,"c1ccc(-c2cc(-c3ccccc3)[nH]n2)cc1 [3,5-diphenylpyrazole]"
6,−2.3,COc1n[nH]c2ccccc12 [3-methoxyindazole]
7,< −0.7,"Nc1ccc(Nc2ccc(N)cc2)cc1 [4,4′-diaminodiphenylamine]"

row,Compound,ΔpKa pseudo
1,"Nc1ccc2c(c1)Cc1cc(N)ccc1-2 [2,7-diaminofluorene]",< −2.1
2,Nc1ccccc1-c1ccccc1 [2-aminobiphenyl],< −2.9
3,Nc1ccc2ccccc2c1 [2-naphthylamine],−3.2
4,Nc1cccc(-c2ccccc2)c1 [3-aminobiphenyl],< −3.0

# Assay: Acid-base titration of aqueous photoacid with absorption and steady-state photoluminescence detection (Henderson-Hasselbalch / Stern-Volmer fits, OH− as quencher)
# Conditions: not given
# Excerpt: FIGS. 2A through 2C illustrate acid-base titration of an aqueous solution of NS—NH2 photoacid with absorption and photoluminescence detection in accordance with an embodiment.
# where aOH− is the activity of OH^−(aq), K*b pseudo is an erroneous observed equilibrium constant for base dissociation and KSV,OH− is the Stern-Volmer quenching constant, which is strictly dimensionless but reported here in units of M^−1 to be consistent with its typical usage. Unlike the Henderson-Hasselbalch equation, the Stern-Volmer equation is also applicable to non-equilibrium processes.
# and KSV,OH−=k+q,OH−τo,PAH*, where τ is the excited-state lifetime (s) of NS—NH2* in the absence (τo,PAH*) or presence (τPAH*) of OH^− quencher and k+q,OH− is the bimolecular rate constant (M^−1 s^−1) for quenching of NS—NH2* by OH^− (forward direction of Reaction 1 with B=OH^−(aq)).
# Several embodiments use the steady-state ultraviolet-visible electronic absorption and photoluminescence spectroscopy for characterization. Equal amounts of aromatic amine photoacids are portioned into five separate 100 mL volumetric flasks. For the non-proton-accepting quencher experiments, the five flasks are filled to the volumetric marker with aqueous solutions of 1 M HCl, 1 M KOH, 2 M KOH, 3 M KOH, and 4 M KOH. The aqueous 1 M KOH solution is titrated with the aqueous 1 M HCl solution to reach the desired pH values from 14 to 6, and the H^+ activities are measured using a pH meter (pH/Ion 510). […] Electronic absorption spectra and photoluminescence spectra are acquired using absorbance and fluorescence spectrometer(s), using a square-bottom quartz cuvette (1 cm path length) at room temperature. Electronic absorption spectra are baselined on a spectrum of deionized water and were corrected for scattering of light. Photoluminescence spectra are recorded by exciting with 310 nm light, slit widths for the excitation and emission monochromators were set to 5 nm, and the PMT detector voltage is set to 600 V. Photoluminescence spectra are corrected for changes in solution refractive index, inner filter effects and the wavelength-dependent correction factor of the fluorimeter. For experiments that use non-OH^− proton-accepting quenchers, equal amounts of the quencher are added to the dry volumetric flask intended to form the acidic and basic aqueous photoacid solutions, to prevent changes in total quencher concentration during the titration, and titrations are performed similarly to those in the absence of added proton-accepting quenchers. Although the total quencher concentration is kept constant throughout the titration, the activity of the deprotonated quencher species varied as a function of solution pH according to Equation 3. Ionic strength is matched at the most alkaline pH values; however, it is experimentally difficult to maintain the same ionic strength throughout the titration. Normalized photoluminescence intensities as a function of solution pH are obtained by dividing the corrected photoluminescence intensities at the wavelength of maximum photoluminescence to the maximum corrected photoluminescence intensity at the same wavelength.
row,Compound,pKa
1,"Nc1cc(S(=O)(=O)[O-])c2ccc3c(S(=O)(=O)[O-])cc(S(=O)(=O)[O-])c4ccc1c2c43.[Na+].[Na+].[Na+] [APTS, 8-aminopyrene-1,3,6-trisulfonic acid trisodium salt]",> 14

# Same assay, conditions: steady-state data; forward direction of Reaction 1 with B=OH−(aq)
row,Compound,"bimolecular rate constant k+q,ss,OH−"
1,"Nc1cc(S(=O)(=O)[O-])c2ccc3c(S(=O)(=O)[O-])cc(S(=O)(=O)[O-])c4ccc1c2c43.[Na+].[Na+].[Na+] [APTS, 8-aminopyrene-1,3,6-trisulfonic acid trisodium salt]",(2.992±0.004)×10^9 M^−1 s^−1

# Same assay, conditions: steady-state photoluminescence titration, global fit of two trials
row,Compound,pK*a pseudo (Henderson-Hasselbalch fit)
1,"Nc1cc(S(=O)(=O)[O-])c2ccc3c(S(=O)(=O)[O-])cc(S(=O)(=O)[O-])c4ccc1c2c43.[Na+].[Na+].[Na+] [APTS, 8-aminopyrene-1,3,6-trisulfonic acid trisodium salt]",12.83±0.01
